Results as given in ChEMBL document CHEMBL1687768, “Liposomal amphotericin B and echinocandins as monotherapy or sequential or concomitant therapy in murine disseminated and pulmonary Aspergillus fumigatus infections” (Antimicrob Agents Chemother, 2010).
In brackets after ≈: the same amount, converted by molar mass. Activity calls are given as the source filed them. No cut-off for these calls is given here. Starred links: 1 amine or outer side, 2 acyl side, 3 side chain; linkers in the order of their positions; H or OH if unused. Positions of bridges follow the written chain, without caps; N, C: chain ends. Non-standard residues stand in square brackets, D forms with d. Residues, ends and D or L forms follow the SMILES beside them. *: point of attachment. hTyr(3S-OH,4S-OH,3'-OSO3H) = N[C@H](C(=O)O)[C@H](O)[C@@H](O)c1ccc(O)c(OS(=O)(=O)O)c1; Orn(4R-OH,5R-OH) = O=C([C@H](C[C@@H](O)[C@@H](O)N[*:3])N[*:1])[*:2]; Pro(3S-OH,4S-Me) = C[C@H]1CN[C@H](C(=O)O)[C@H]1O; X1 = CCCCCOc1ccc(-c2cc(-c3ccc(C(=O)*)cc3)no2)cc1; Gln(3R-OH) = NC(=O)C[C@@H](O)[C@H](N)C(=O)O; Hyp = O=C(O)[C@@H]1C[C@@H](O)CN1

Columns and labels:
[1] = test system: Kidney; test: Drug level in immunosuppressed Swiss Webster mouse Kidney with disseminated aspergillosis assessed as compound level per gram of tissue at 15 mg/kg/day, iv for 7 days measured on day 8; type: ADME, organism-based; parameters: route intravenous; conditions: in vivo, 168 h
[2] = test system: Spleen; test: Drug level in immunosuppressed Swiss Webster mouse spleen with disseminated aspergillosis assessed as compound level per gram of tissue at 15 mg/kg/day, iv for 7 days measured on day 8; type: ADME, organism-based; parameters: route intravenous; conditions: in vivo, 168 h
[3] = test system: Aspergillus fumigatus; test: Antifungal activity against Aspergillus fumigatus ATCC 13073 infected in immunosuppressed Swiss Webster mouse assessed as reduction in fungal burden in kidney at 5 mg/kg, iv for 3 days treated 4 days postinfection relative to control; type: functional, organism-based; parameters: dose 5 mg/kg
[4] = test system: Aspergillus fumigatus; test: Antifungal activity against Aspergillus fumigatus ATCC 13073 infected in immunosuppressed Swiss Webster mouse assessed as reduction in fungal burden in spleen at 5 mg/kg, iv for 3 days treated 4 days postinfection relative to control; type: functional, organism-based; parameters: dose 5 mg/kg
[5] = test system: Aspergillus fumigatus; test: Antifungal activity against Aspergillus fumigatus ATCC 13073 infected in immunosuppressed Swiss Webster mouse assessed as reduction in fungal burden in kidney at 5 mg/kg, iv for 6 days measured 24 hrs after last dose relative to control; type: functional, organism-based; parameters: dose 5 mg/kg
[6] = test system: Kidney; test: Drug level in immunosuppressed Swiss Webster mouse Kidney with disseminated aspergillosis assessed as compound level per gram of tissue at 5 mg/kg/day, iv for 7 days measured on day 8; type: ADME, organism-based; parameters: route intravenous; conditions: in vivo, 168 h
[7] = test system: Aspergillus fumigatus; test: Antifungal activity against Aspergillus fumigatus ATCC 13073 infected in immunosuppressed Swiss Webster mouse assessed as survival rate at 5 mg/kg, iv for 6 days treated 24hrs postinfection measured after 28 days; type: functional
[8] = test system: Aspergillus fumigatus; test: Antifungal activity against Aspergillus fumigatus ATCC 13073; type: functional
[9] = test system: Aspergillus fumigatus; test: Antifungal activity against Aspergillus fumigatus ATCC 13073 infected in immunosuppressed Swiss Webster mouse assessed as reduction in fungal burden in spleen at 15 mg/kg, iv for 6 days treated 24 hrs postinfection measured 24 hrs after last dose by galactomnnan assay relative to control; type: functional, organism-based; parameters: dose 15 mg/kg
[10] = test system: Kidney; test: Drug level in immunosuppressed Swiss Webster mouse Kidney with disseminated aspergillosis assessed as compound level per gram of tissue at 10 mg/kg/day, iv for 7 days measured on day 8; type: ADME, organism-based; parameters: route intravenous; conditions: in vivo, 168 h
[11] = test system: Aspergillus fumigatus; test: Antifungal activity against Aspergillus fumigatus ATCC 13073 infected in immunosuppressed Swiss Webster mouse assessed as survival rate at 15 mg/kg, iv for 6 days measured after 28 days; type: functional
[12] = test system: Spleen; test: Drug level in immunosuppressed Swiss Webster mouse spleen with disseminated aspergillosis assessed as compound level per gram of tissue at 5 mg/kg/day, iv for 7 days measured on day 8; type: ADME, organism-based; parameters: route intravenous; conditions: in vivo, 168 h
[13] = test system: Aspergillus fumigatus; test: Antifungal activity against Aspergillus fumigatus ATCC 13073 infected in immunosuppressed Swiss Webster mouse assessed as reduction in fungal burden in spleen at 5 mg/kg, iv for 6 days treated 24 hrs postinfection measured 24 hrs after last dose relative to control; type: functional, organism-based; parameters: dose 5 mg/kg
[14] = test system: Spleen; test: Drug level in immunosuppressed Swiss Webster mouse spleen with disseminated aspergillosis assessed as compound level per gram of tissue at 10 mg/kg/day, iv for 7 days measured on day 8; type: ADME, organism-based; parameters: route intravenous; conditions: in vivo, 168 h
[15] = test system: Aspergillus fumigatus; test: Antifungal activity against Aspergillus fumigatus ATCC 13073 infected in immunosuppressed Swiss Webster mouse assessed as reduction in fungal burden in spleen at 10 mg/kg, iv for 6 days treated 24 hrs postinfection measured 24 hrs after last dose relative to control; type: functional, organism-based; parameters: dose 10 mg/kg
[16] = test system: Kidney; test: Drug level in immunosuppressed Swiss Webster mouse kidney with pulmonary aspergillosis assessed as compound level per gram of tissue at 5 mg/kg/day, iv for 5 days measured on day 6; type: ADME, organism-based; parameters: route intravenous; conditions: in vivo, 120 h
[17] = test system: Spleen; test: Drug level in immunosuppressed Swiss Webster mouse spleen with pulmonary aspergillosis assessed as compound level per gram of tissue at 5 mg/kg/day, iv for 5 days measured on day 6; type: ADME, organism-based; parameters: route intravenous; conditions: in vivo, 120 h
[18] = test system: Aspergillus fumigatus; test: Antifungal activity against Aspergillus fumigatus ATCC 13073 infected in immunosuppressed Swiss Webster mouse assessed as increase in survival rate at 5 mg/kg, iv for 6 days treated 24 hrs postinfection measured after 28 days; type: functional, organism-based; parameters: dose 5 mg/kg
[19] = test system: Aspergillus fumigatus; test: Antifungal activity against Aspergillus fumigatus ATCC 13073 infected Swiss Webster mouse pulmonary aspergillosis model assessed as organism survival at 5 mg/kg/day, iv for 5 days dosed 2 hrs post challenge; type: functional

SMILES | tissue concentration [1] | tissue concentration [2] | Activity [3] | Activity [4] | Activity [5] | tissue concentration [6] | survival at 5 mg/kg [7] | MIC [8] | Activity [9] | tissue concentration [10] | survival at 15 mg/kg [11] | tissue concentration [12] | Activity [13] | tissue concentration [14] | Activity [15] | tissue concentration [16] | tissue concentration [17] | Activity [18] | survival at 5 mg/kg/day [19]
CCCCCOc1ccc(-c2cc(-c3ccc(C(=O)N[C@H]4C[C@@H](O)[C@@H](O)NC(=O)[C@@H]5[C@@H](O)[C@@H](C)CN5C(=O)[C@H]([C@H](O)CC(N)=O)NC(=O)[C@H]([C@H](O)[C@@H](O)c5ccc(O)c(OS(=O)(=O)O)c5)NC(=O)[C@@H]5C[C@@H](O)CN5C(=O)[C@H]([C@@H](C)O)NC4=O)cc3)no2)cc1 [MICAFUNGIN] (X1-[Orn(4R-OH,5R-OH)]T[Hyp][hTyr(3S-OH,4S-OH,3'-OSO3H)][Gln(3R-OH)][Pro(3S-OH,4S-Me)]; lactam 1-C) | 22.5 µg/g | 32.7 µg/g | inactive | inactive | Active | 5.6 µg/g | 86% | 0.31 µg/mL (≈ 0.244 µM) | Active | 25.2 µg/g | 57% | 17.9 µg/g | Active | 33.6 µg/g | Active |  |  |  | 
CC[C@H](C)C[C@H](C)CCCCCCCCC(=O)N[C@H]1C[C@@H](O)[C@@H](NCCN)NC(=O)[C@@H]2[C@@H](O)CCN2C(=O)[C@H]([C@H](O)CCN)NC(=O)[C@H]([C@H](O)[C@@H](O)c2ccc(O)cc2)NC(=O)[C@@H]2C[C@@H](O)CN2C(=O)[C@H]([C@@H](C)O)NC1=O [CASPOFUNGIN] |  |  |  |  |  |  |  | 0.31 µg/mL (≈ 0.284 µM) |  |  |  |  |  |  |  | 14.4 µg/g | 31.6 µg/g | Active | 0%
